Measurements reported in paper PMC5115179 (Pharmacology Research & Perspectives, 2016).

Assays:
[1] = NCS‐382–diclofenac interaction study (inhibition of NCS‐382 glucuronidation); conditions: mouse; for AUC(0-t): both, in vivo, 25 mg/kg
UGT2B7 = tested on: UGT2B7; set-up: method as in Miners et al. 1997; Ammon et al. 2000; King et al. 2001; conditions: ref Miners et al. 1997; Ammon et al. 2000; King et al. 2001; cited from earlier work
UGT1A9 = tested on: UGT1A9; set-up: method as in Miners et al. 1997; Ammon et al. 2000; King et al. 2001; conditions: ref Miners et al. 1997; Ammon et al. 2000; King et al. 2001; cited from earlier work
[2] = tested on: gamma‐butyrolactone‐treated mice; assay: GBL‐mediated response protection by NCS‐382 in the absence and presence of diclofenac; assay type: in vivo; conditions: mouse; given alone i.p. (NCS‐382 300 mg/kg or diclofenac 25 mg/kg) 30 min before GBL 100 mg/kg i.p.
GHB binding sites = tested on: GHB binding sites; set-up: method as in Wellendorph et al. 2009; conditions: ref Wellendorph et al. 2009; cited from earlier work
[3] = tested on: monocarboxylate transporter 1 (MCT1); set-up: method as in Tamai et al. 1999; Wang and Morris 2007; conditions: ref Tamai et al. 1999; Wang and Morris 2007; cited from earlier work
[4] = Excretion of NCS‐382 in urine and feces (metabolic cages); assay type: in vivo; conditions: mouse, reanalyzed samples of study 1
Procedure: To ensure sufficient volumes of urine could be collected in each of the 2 h time intervals (baseline, 0–2, 2–4, 4–6, 6–8 h), three mice were dosed simultaneously and their urine and feces pooled for analysis. The total dose in μg administered to the three animals was therefore used to calculate the percent of the dose excreted in the urine pooled from all three mice. Animals were allowed ad libitum access to food and water of which the intake of each was monitored.
Samples (3 μL) were injected onto a Kinetex PFP (50 × 2.1 mm, 1.7 μm particle size) UPLC column and eluted with a binary gradient consisting of water with 0.1% formic acid (mobile phase A) and methanol with 0.1% formic acid (mobile phase B). […] Eluent was directed to waste for the initial 0.4 min then to an ABI Sciex 6500 Qtrap tandem mass spectrometer. […] Where necessary, samples were diluted in blank matrices for analysis.
Pharmacokinetic outcomes were obtained via standard noncompartmental methods using Kinetica (version 5.1, Thermo Fisher Scientific, Waltham, MA). The maximum concentration (C max) was obtained directly from the concentration–time profiles. Area under the concentration–time curve (AUC) from time zero to the last collected time point was determined using the trapezoidal method with linear up/log down interpolation.

[5] = treatment Diclofenac 25 mg/kg alone
[6] = treatment NCS‐382 300 mg/kg + Diclofenac 25 mg/kg
[7] = treatment NCS‐382 300 mg/kg alone

Question: For `O=C(O)Cc1ccccc1Nc1c(Cl)cc(O)cc1Cl` [4‐OH‐Diclofenac, 4′‐hydroxydiclofenac], which “Sera AUC0–2 h [90% CI], relative quantification (peak area ratio)” value [1, 5] is on record?
Answer: 6.76 [5.18–8.33] PAR*h

Question: What about the “Sera AUC0–2 h [90% CI], relative quantification (peak area ratio)” value [1, 6] of the same molecule?
Answer: 8.28 [7.60–8.97] PAR*h

Question: For `O=C(O)Cc1cc(O)ccc1Nc1c(Cl)cccc1Cl` [5‐OH‐Diclofenac, 5‐hydroxydiclofenac], which AUC(0-t) [1] is on record?
Answer: 61.3 µM·h

Question: And the “Brain AUC0–2 h [90% CI]” value [1, 5]?
Answer: 4.60 [4.55–4.65] nmol g/tissue*h

Question: And the “Brain AUC0–2 h [90% CI]” value [1, 6]?
Answer: 5.20 [4.77–5.62] ^a nmol g/tissue*h

Question: Which “Brain AUC0–2 h [90% CI], relative quantification (peak area ratio)” value [1, 5] does the source give for `O=C(Cc1ccccc1Nc1c(Cl)cccc1Cl)O[C@@H]1O[C@H](C(=O)O)[C@@H](O)[C@H](O)[C@H]1O` [Diclofenac glucuronide] here?
Answer: 5.87 [4.46–7.28] PAR*h

Question: What about the “Sera AUC0–2 h [90% CI], relative quantification (peak area ratio)” value [1, 5] of the same molecule?
Answer: 8.57 [6.09–11.04] PAR*h

Question: What about the “Brain AUC0–2 h [90% CI], relative quantification (peak area ratio)” value [1, 6] of the same molecule?
Answer: 3.96 [3.25–4.67] PAR*h

Question: And the “Sera AUC0–2 h [90% CI], relative quantification (peak area ratio)” value [1, 6]?
Answer: 4.67 [4.21–5.13] ^a PAR*h

Question: For `O=C(O)Cc1ccccc1Nc1c(Cl)cccc1Cl` [Diclofenac], which Ki (UGT2B7) is on record?
Answer: […]

Question: What about the AUC(0-t) [1] of the same molecule?
Answer: 232 µM·h

Question: And the “Brain AUC0–2 h [90% CI]” value [1, 5]?
Answer: 33.8 [28.2–39.4] nmol/g/tissue*h

Question: And the “Brain AUC0–2 h [90% CI]” value [1, 6]?
Answer: 44.9 [39.5–50.3] ^a nmol/g/tissue*h

Question: What about the Ki (UGT1A9) of the same molecule?
Answer: 11 µM

Question: And the “time to loss of motor function compared to vehicle control” value [2]?
Answer: did not have a measureable effect

Question: And the “binding to GHB binding sites in rat brain” value (GHB binding sites)?
Answer: ligand for the GHB binding sites in rat brain

Question: Which Km [3] does the source give for `O=C(O)CCCO` [GHB, gamma‐hydroxybutyric acid] here?
Answer: 4.6 to 7.7 mM

Question: What does the source list for `O=C(O)/C=C1\CCCc2ccccc2C1=O` [NCS dehydrogenation]?
Answer: Sera AUC0–2 h [90% CI], relative quantification (peak area ratio) [1, 6]: 2.72 [2.26–3.18] ^a PAR*h; Sera AUC0–2 h [90% CI], relative quantification (peak area ratio) [1, 7]: 1.99 [1.82–2.16] PAR*h; detection of NCS‐382 metabolites in urine and feces [4]: found in neither

Question: Which “Brain AUC0–2 h [90% CI], relative quantification (peak area ratio)” value [1, 6] does the source give for `O=C(O)/C=C1\CCCc2ccccc2C1O[C@@H]1O[C@H](C(=O)O)[C@@H](O)[C@H](O)[C@H]1O` (stereo partly shown) [NCS‐Glucuronide] here?
Answer: 4.58 [3.61–5.55] PAR*h

Question: And the “Sera AUC0–2 h [90% CI], relative quantification (peak area ratio)” value [1, 6]?
Answer: 2.86 [2.55–3.18] PAR*h

Question: And the “Brain AUC0–2 h [90% CI], relative quantification (peak area ratio)” value [1, 7]?
Answer: 3.28 [2.53–4.03] PAR*h

Question: What about the “Sera AUC0–2 h [90% CI], relative quantification (peak area ratio)” value [1, 7] of the same molecule?
Answer: 3.65 [2.65–4.65] PAR*h

Question: What about the “detection of NCS‐382 metabolites in urine and feces” value [4] of the same molecule?
Answer: detectable in both the urine and feces
